The text below walks through data of patent US20140275281A1, “Geranylgeranyl acetone and derivatives thereof for intranasal administration” (COYOTE PHARMACEUTICALS, INC., priority 2013, published 2014).

The experiment is described as follows: pharmacological activity of GGA isomers (test not described). As to conditions: at low concentrations; statement in words only, no data given.

`CC(=O)CC/C=C(\C)CC/C=C(\C)CC/C=C(\C)CCC=C(C)C` (single isomer, unassigned) [trans-isomer of GGA, trans-GGA]: the pharmacological activity entry was “pharmacologically active”. Under `CC(=O)CC/C=C(/C)CC/C=C(\C)CC/C=C(\C)CCC=C(C)C` (single isomer, unassigned) [cis-isomer of GGA, 5Z, 9E, 13E geranylgeranyl acetone] stands “at best of minimal activity”.
